# Test results taken from ChEMBL document CHEMBL3046773 (Med Chem Res, 2013).
# Molecular target: Voltage-dependent L-type calcium channel subunit alpha-1C (Cavia porcellus, UniProt O35505)
# Assay: Antagonist activity at calcium channel in Cavia porcellus (guinea pig) ileum assessed as inhibition of KCl-induced muscle contraction at 10 mM; call rule not given here
# Type: tissue-based
# Sequence of Voltage-dependent L-type calcium channel subunit alpha-1C (O35505 whole entry): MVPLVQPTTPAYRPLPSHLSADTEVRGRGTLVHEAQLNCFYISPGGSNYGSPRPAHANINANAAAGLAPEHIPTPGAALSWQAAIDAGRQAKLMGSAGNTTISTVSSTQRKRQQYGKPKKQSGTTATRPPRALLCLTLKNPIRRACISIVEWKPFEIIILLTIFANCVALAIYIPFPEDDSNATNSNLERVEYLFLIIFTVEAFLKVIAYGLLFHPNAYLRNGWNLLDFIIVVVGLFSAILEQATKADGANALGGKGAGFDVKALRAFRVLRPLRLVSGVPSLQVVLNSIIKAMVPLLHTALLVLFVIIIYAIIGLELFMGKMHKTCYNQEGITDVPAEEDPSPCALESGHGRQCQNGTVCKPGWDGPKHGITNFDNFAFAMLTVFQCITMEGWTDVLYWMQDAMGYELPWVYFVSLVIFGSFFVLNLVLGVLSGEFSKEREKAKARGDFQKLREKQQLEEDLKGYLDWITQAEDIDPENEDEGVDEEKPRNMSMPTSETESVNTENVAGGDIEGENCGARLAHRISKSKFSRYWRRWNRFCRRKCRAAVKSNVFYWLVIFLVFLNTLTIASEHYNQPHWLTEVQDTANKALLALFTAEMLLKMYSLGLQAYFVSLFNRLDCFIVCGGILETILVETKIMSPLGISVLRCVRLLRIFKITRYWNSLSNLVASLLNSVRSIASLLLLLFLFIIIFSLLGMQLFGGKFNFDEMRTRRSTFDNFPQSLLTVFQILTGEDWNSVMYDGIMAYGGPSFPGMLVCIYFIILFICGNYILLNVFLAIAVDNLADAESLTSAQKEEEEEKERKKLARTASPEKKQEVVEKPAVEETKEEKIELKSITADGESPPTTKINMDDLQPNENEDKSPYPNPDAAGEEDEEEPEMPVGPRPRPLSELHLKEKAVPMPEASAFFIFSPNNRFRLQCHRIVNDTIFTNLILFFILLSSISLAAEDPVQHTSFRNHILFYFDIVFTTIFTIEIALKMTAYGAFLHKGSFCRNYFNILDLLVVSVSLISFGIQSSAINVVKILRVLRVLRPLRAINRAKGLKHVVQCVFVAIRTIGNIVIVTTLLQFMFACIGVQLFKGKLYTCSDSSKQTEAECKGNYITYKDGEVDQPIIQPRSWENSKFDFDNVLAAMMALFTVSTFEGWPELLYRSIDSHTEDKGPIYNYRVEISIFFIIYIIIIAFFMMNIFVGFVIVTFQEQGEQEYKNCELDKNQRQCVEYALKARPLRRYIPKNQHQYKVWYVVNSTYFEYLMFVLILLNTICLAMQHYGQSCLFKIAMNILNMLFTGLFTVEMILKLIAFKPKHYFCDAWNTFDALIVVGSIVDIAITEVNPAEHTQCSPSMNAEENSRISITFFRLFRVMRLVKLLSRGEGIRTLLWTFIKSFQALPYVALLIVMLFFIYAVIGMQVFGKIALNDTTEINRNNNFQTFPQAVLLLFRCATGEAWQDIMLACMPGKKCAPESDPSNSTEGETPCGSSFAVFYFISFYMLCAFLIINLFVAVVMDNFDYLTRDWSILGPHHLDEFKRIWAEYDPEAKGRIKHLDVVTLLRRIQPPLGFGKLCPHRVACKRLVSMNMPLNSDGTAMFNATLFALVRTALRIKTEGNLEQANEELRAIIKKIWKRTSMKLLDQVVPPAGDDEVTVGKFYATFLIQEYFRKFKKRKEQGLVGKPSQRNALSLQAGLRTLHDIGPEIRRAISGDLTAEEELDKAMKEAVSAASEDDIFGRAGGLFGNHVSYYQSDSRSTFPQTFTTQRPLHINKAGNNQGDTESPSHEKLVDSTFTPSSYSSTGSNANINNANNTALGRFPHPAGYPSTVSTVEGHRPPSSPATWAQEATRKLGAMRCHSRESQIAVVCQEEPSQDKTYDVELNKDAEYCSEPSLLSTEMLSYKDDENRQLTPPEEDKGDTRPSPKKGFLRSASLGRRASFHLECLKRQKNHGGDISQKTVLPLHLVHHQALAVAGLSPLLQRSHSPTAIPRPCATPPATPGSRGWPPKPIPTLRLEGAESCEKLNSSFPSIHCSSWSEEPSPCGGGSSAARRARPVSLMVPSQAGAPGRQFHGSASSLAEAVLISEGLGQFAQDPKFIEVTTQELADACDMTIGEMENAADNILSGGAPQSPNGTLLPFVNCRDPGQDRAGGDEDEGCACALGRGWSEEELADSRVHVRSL
compound,measurement,value
COC(=O)C1=C(C)NC(C)=C(C(=O)OC)C1c1ccccc1[N+](=O)[O-] [NIFEDIPINE],inhibition (INH),Active
